# From US20250326749A1, “COMPOUNDS, COMPOSITIONS, AND METHODS OF USING THEREOF” (Sionna Therapeutics Inc., priority 2022, published 2025)
# Molecular target: T1, ΔF508-CFTR (Homo sapiens, UniProt P13569, DEL508-508)
# T1 construct: expressed in transfected cells; host or cells: CFSMEo- (human CF submucosal gland epithelial cells, ΔF508/Q2X), transiently transfected by nucleofection
# Assay: ΔF508-CFTR-HRP trafficking assay (cell surface expression of ΔF508-CFTR)
# Assay type: cell-based
# Settings: CFSMEo- cells transiently transfected with ΔF508-CFTR-HRP; test agent 3 μM, 48 h; HRP chemiluminescence
# How it was run: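 Surface-expressed ΔF508-CFTR measured via extracellular HRP tag: cell-impermeable chemiluminescent substrate, 5 min, signal normalized to 0.3% DMSO vehicle.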
# T1 sequence (P13569 with tags, fused parts or gaps DEL508-508): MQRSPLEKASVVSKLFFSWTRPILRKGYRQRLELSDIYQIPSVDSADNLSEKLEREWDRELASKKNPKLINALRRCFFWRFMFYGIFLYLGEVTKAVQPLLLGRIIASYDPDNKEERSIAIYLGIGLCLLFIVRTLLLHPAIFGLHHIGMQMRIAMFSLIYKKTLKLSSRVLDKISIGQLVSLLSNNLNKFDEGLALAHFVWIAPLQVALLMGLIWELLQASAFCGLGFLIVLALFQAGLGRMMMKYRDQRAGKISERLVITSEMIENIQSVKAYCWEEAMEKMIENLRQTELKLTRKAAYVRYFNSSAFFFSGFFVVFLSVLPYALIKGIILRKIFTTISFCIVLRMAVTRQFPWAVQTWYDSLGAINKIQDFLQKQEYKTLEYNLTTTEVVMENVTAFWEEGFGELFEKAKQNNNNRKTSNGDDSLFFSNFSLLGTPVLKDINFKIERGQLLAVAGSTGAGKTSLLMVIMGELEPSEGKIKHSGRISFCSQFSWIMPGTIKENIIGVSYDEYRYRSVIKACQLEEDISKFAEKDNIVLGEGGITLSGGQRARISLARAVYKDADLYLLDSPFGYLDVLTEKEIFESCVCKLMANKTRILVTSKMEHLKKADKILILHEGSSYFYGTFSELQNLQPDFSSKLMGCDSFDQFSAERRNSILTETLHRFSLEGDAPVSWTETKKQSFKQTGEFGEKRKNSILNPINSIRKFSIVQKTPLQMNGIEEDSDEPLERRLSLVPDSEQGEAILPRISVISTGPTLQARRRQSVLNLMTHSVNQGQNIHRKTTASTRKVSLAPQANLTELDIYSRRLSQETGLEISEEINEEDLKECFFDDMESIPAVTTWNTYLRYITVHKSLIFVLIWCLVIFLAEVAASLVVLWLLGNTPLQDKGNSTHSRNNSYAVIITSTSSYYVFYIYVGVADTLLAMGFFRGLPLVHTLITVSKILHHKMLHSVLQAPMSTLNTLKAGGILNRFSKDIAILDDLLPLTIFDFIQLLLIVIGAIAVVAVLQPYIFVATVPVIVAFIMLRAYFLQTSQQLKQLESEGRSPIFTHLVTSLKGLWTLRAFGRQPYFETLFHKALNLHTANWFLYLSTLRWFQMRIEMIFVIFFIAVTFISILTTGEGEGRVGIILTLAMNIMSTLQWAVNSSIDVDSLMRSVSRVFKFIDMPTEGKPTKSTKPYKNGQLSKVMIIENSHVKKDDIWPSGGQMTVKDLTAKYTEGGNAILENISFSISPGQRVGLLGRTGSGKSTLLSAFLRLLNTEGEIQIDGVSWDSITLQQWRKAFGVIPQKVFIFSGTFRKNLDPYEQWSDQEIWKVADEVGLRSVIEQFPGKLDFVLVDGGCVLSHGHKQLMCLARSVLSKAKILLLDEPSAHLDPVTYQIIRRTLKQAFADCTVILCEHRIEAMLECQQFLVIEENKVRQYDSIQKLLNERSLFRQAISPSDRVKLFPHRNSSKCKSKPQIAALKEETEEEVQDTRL
row,Compound,RLUs: ΔF508-CFTR-HRP trafficking data normalized to the vehicle treated control (0.3% DMSO)
1,"C[C@H](Oc1cc(-n2nc(C(F)(F)F)c3c2[C@@H](Oc2ccc(-c4nc(=O)o[nH]4)cc2)CCC3)ccc1F)c1ccc2c(c1)OC(F)(F)O2 (single isomer, unassigned) [Example 111]",C (RLU 0.0 μM-3.5 μM)
2,"C[C@H](Oc1cc(-n2nc(C(F)(F)F)c3c2[C@@H](Oc2ccc(-c4nc(=O)o[nH]4)cc2)CCC3)ccn1)c1ccc2c(c1)OC(F)(F)O2 (single isomer, unassigned) [Example 112]",A (RLU 5.0 μM-10 μM)
3,"C[C@H](Oc1cc(-n2nc(C(F)(F)F)c3c2[C@H](NC(=O)C24CC(C(=O)O)(C2)C4)CCC3)ccn1)c1ccc2c(c1)OC(F)(F)O2 (single isomer, unassigned) [Example 113]",C (RLU 0.0 μM-3.5 μM)
4,"C[C@H](Oc1cc(-n2nc(C(F)(F)F)c3c2[C@@H](NC(=O)c2ccc(C(=O)O)cc2)CCC3)ccn1)c1ccc2c(c1)OC(F)(F)O2 (single isomer, unassigned) [Example 114]",C (RLU 0.0 μM-3.5 μM)
5,"C[C@H](Oc1cccc(-c2nn(CC(F)(F)F)c3c2[C@@H](Oc2ccc(C(=O)O)cc2)CCC3)n1)c1ccc2c(c1)OC(F)(F)O2 (single isomer, unassigned) [Example 126]",A (RLU 5.0 μM-10 μM)
6,"C[C@H](Nc1cc(-c2nn(C3COC3)c3c2[C@@H](Oc2ccc(C(=O)O)cc2)CCC3)ccn1)c1ccc2c(c1)OC(F)(F)O2 (single isomer, unassigned) [Example 127]",A (RLU 5.0 μM-10 μM)
7,"CC(C)n1nc(-c2ccnc(N[C@@H](C)c3ccc4c(c3)OC(F)(F)O4)c2)c2c1CCC[C@@H]2Oc1ccc(C(=O)O)cc1 (single isomer, unassigned) [Example 128]",B (RLU 3.5 μM-5.0 μM)
8,"C[C@H](Nc1cc(-c2nn(CC(F)(F)F)c3c2[C@@H](Oc2ccc(C(=O)O)cc2)CCC3)ccn1)c1ccc2c(c1)OC(F)(F)O2 (single isomer, unassigned) [Example 129]",B (RLU 3.5 μM-5.0 μM)
9,"C[C@H](Oc1cc(-n2nc(C(F)(F)F)c3c2C(O[C@H]2CC[C@H](C(=O)O)CC2)CCC3)cnc1F)c1ccc2c(c1)OC(F)(F)O2 (stereo in doubt) [79 (P2), 4-[[(7R)-1-[5-[(1S)-1-(2,2-difluoro-1,3-benzodioxol-5-yl)ethoxy]-6-fluoro-3-pyridyl]-3-(trifluoromethyl)-4,5,6,7-tetrahydroindazol-7-yl]oxy]cyclohexanecarboxylic acid]",A (RLU 5.0 μM-10 μM)
10,"C[C@H](Oc1cc(-n2nc(C(F)(F)F)c3c2C(O[C@H]2CC[C@H](C(=O)O)CC2)CCC3)cc(F)n1)c1ccc2c(c1)OC(F)(F)O2 (stereo in doubt) [80 (P2), 4-[[(7R)-1-[2-[(1S)-1-(2,2-difluoro-1,3-benzodioxol-5-yl)ethoxy]-6-fluoro-4-pyridyl]-3-(trifluoromethyl)-4,5,6,7-tetrahydroindazol-7-yl]oxy]cyclohexanecarboxylic acid]",B (RLU 3.5 μM-5.0 μM)
11,"CC(Oc1cc(-n2nc(C(F)(F)F)c3c2C(OC24CC(C(=O)O)(C2)C4)CCC3)ccn1)c1cc2c(cn1)OC(F)(F)O2 (stereo in doubt) [Example 46, 3-[[1-[2-[(1R)-1-(2,2-difluoro-[1,3]dioxolo[4,5-c]pyridine-6-yl)ethoxy]-4-pyridyl]-3-(trifluoromethyl)-4,5,6,7-tetrahydroindazol-7-yl]oxy]bicyclo[1.1.1]pentane-1-carboxylic acid]",B (RLU 3.5 μM-5.0 μM)
12,"C[C@H](Oc1cc(-n2nc(C(F)(F)F)c3c2N(Cc2ccc(C(=O)O)cc2)CCC3)ccn1)c1ccc2c(c1)OC(F)(F)O2 [Example 8, 4-[[1-[2-[(1S)-1-(2,2-difluoro-1,3-benzodioxol-5-yl)ethoxy]-4-pyridyl]-3-(trifluoromethyl)-5,6-dihydro-4H-pyrazolo[3,4-b]pyridine-7-yl]methyl]benzoic acid]",B (RLU 3.5 μM-5.0 μM)
13,"CC(Oc1cccc(-n2nc(C(F)(F)F)c3c2N(CC24CC(C(=O)O)(C2)C4)CCC3)c1)c1ccc2c(c1)OC(F)(F)O2 (stereo not drawn) [Example 10, 3-[[1-[3-[1-(2,2-difluoro-1,3-benzodioxol-5-yl)ethoxy]phenyl]-3-(trifluoromethyl)-5,6-dihydro-4H-pyrazolo[3,4-b]pyridine-7-yl]methyl]bicyclo[1.1.1]pentane-1-carboxylic acid]",B (RLU 3.5 μM-5.0 μM)
14,"C[C@H](Oc1cccc(-n2nc(C(F)(F)F)c3c2N(CC24CC(C(=O)O)(C2)C4)CCC3)c1)c1ccc2c(c1)OC(F)(F)O2 [Example 11, 3-[[1-[3-[(1S)-1-(2,2-difluoro-1,3-benzodioxol-5-yl)ethoxy]phenyl]-3-(trifluoromethyl)-5,6-dihydro-4H-pyrazolo[3,4-b]pyridine-7-yl]methyl]bicyclo[1.1.1]pentane-1-carboxylic acid]",A (RLU 5.0 μM-10 μM)
15,"C[C@H](Oc1cncc(-n2nc(C(F)(F)F)c3c2N(C[C@H]2CC[C@H](C(=O)O)CC2)CCC3)c1)c1ccc2c(c1)OC(F)(F)O2 [Example 13, Trans-4-[[1-[5-[(1S)-1-(2,2-difluoro-1,3-benzodioxol-5-yl)ethoxy]-3-pyridyl]-3-(trifluoromethyl)-5,6-dihydro-4H-pyrazolo[3,4-b]pyridine-7-yl]methyl]cyclohexanecarboxylic acid]",B (RLU 3.5 μM-5.0 μM)
16,"C[C@H](Oc1cccc(-n2nc(C(F)(F)F)c3c2N(C(=O)N2CCC(C(=O)O)CC2)CCC3)c1)c1ccc2c(c1)OC(F)(F)O2 [Example 18, 1-[1-[3-[(1S)-1-(2,2-difluoro-1,3-benzodioxol-5-yl)ethoxy]phenyl]-3-(trifluoromethyl)-5,6-dihydro-4H-pyrazolo[3,4-b]pyridine-7-carbonyl]piperidine-4-carboxylic acid]",A (RLU 5.0 μM-10 μM)
17,"CC(Oc1cccc(-n2nc(C(F)(F)F)c3c2C(Oc2ccc(C(=O)O)cc2)CCC3)c1)c1ccc2c(c1)OC(F)(F)O2 (stereo not drawn) [Example 19, 4-[[1-[3-[1-(2,2-difluoro-1,3-benzodioxol-5-yl)ethoxy]phenyl]-3-(trifluoromethyl)-4,5,6,7-tetrahydroindazol-7-yl]oxy]benzoic acid]",B (RLU 3.5 μM-5.0 μM)
18,"O=C(O)c1ccc(OC2CCCc3c(C(F)(F)F)nn(-c4cccc(OCc5ccc6c(c5)OC(F)(F)O6)c4)c32)cc1 (stereo not drawn) [Example 20, 4-[[1-[3-[(2,2-difluoro-1,3-benzodioxol-5-yl)methoxy]phenyl]-3-(trifluoromethyl)-4,5,6,7-tetrahydroindazol-7-yl]oxy]benzoic acid]",B (RLU 3.5 μM-5.0 μM)
19,"C[C@@H](Oc1cc(-n2nc(C(F)(F)F)c3c2C(Oc2ccc(C(=O)O)cc2)CCC3)ccn1)c1ccc2c(c1)OC(F)(F)O2 (stereo partly drawn) [Example 21, 4-[[1-[2-[(1R)-1-(2,2-difluoro-1,3-benzodioxol-5-yl)ethoxy]-4-pyridyl]-3-(trifluoromethyl)-4,5,6,7-tetrahydroindazol-7-yl]oxy]benzoic acid]",A (RLU 5.0 μM-10 μM)
20,"C[C@H](Oc1cc(-n2nc(C(F)(F)F)c3c2C(Oc2ccc(C(=O)O)cc2)CCC3)ccn1)c1ccc2c(c1)OC(F)(F)O2 (stereo partly drawn) [Example 22, 4-[[1-[2-[(1S)-1-(2,2-difluoro-1,3-benzodioxol-5-yl)ethoxy]-4-pyridyl]-3-(trifluoromethyl)-4,5,6,7-tetrahydroindazol-7-yl]oxy]benzoic acid]",B (RLU 3.5 μM-5.0 μM)
21,C[C@H](Oc1cccc(-n2nc(C(F)(F)F)c3c2C(Oc2ccc(C(=O)O)cc2)CCC3)c1)c1ccc2c(c1)OC(F)(F)O2 (stereo partly drawn) [Example 29],B (RLU 3.5 μM-5.0 μM)
22,C[C@@H](Oc1cccc(-n2nc(C(F)(F)F)c3c2C(Oc2ccc(C(=O)O)cc2)CCC3)c1)c1cc2c(cn1)OC(F)(F)O2 (stereo partly drawn) [Example 30],B (RLU 3.5 μM-5.0 μM)
23,C[C@H](Oc1cccc(-n2nc(C(F)(F)F)c3c2C(Oc2ccc(C(=O)O)cc2)CCC3)c1)c1cc2c(cn1)OC(F)(F)O2 (stereo partly drawn) [Example 31],C (RLU 0.0 μM-3.5 μM)
24,"C[C@@H](Oc1cccc(-n2nc(C(F)(F)F)c3c2C(Oc2ccc(C(=O)O)cc2)CCC3)c1)c1cc2c(cc1F)OC(F)(F)O2 (stereo partly drawn) [Example 32, 4-[[1-[3-[(1R)-1-(2,2,6-trifluoro-1,3-benzodioxol-5-yl)ethoxy]phenyl]-3-(trifluoromethyl)-4,5,6,7-tetrahydroindazol-7-yl]oxy]benzoic acid]",B (RLU 3.5 μM-5.0 μM)
25,"C[C@H](Oc1cccc(-n2nc(C(F)(F)F)c3c2C(Oc2ccc(C(=O)O)cc2)CCC3)c1)c1cc2c(cc1F)OC(F)(F)O2 (stereo partly drawn) [Example 33, 4-[[1-[3-[(1S)-1-(2,2,6-trifluoro-1,3-benzodioxol-5-yl)ethoxy]phenyl]-3-(trifluoromethyl)-4,5,6,7-tetrahydroindazol-7-yl]oxy]benzoic acid]",B (RLU 3.5 μM-5.0 μM)
26,Cc1cc(OC2CCCc3c(C(F)(F)F)nn(-c4cccc(O[C@@H](C)c5cc6c(cc5F)OC(F)(F)O6)c4)c32)ccc1C(=O)O (stereo partly drawn) [Example 35],B (RLU 3.5 μM-5.0 μM)
27,C[C@@H](Oc1cccc(-n2nc(C(F)(F)F)c3c2C(O[C@H]2CC[C@H](C(=O)O)CC2)CCC3)c1)c1ccc2c(c1)OC(F)(F)O2 (stereo partly drawn) [Example 38],A (RLU 5.0 μM-10 μM)
